Source: PubChem BioAssay AID1963446 (Molecular Pharmacology Branch, DTP, NCI, 2024)
Several values for one entry are separate records, joined by “and”; a condition that tells them apart may be missing. Equal entries are not always repeated.

Test system: 993429-296-R-J1-PDC complex spheroid growth, percent test/control
Assay: Anticancer human tumor 993429-296-R-J1-PDC patient-derived uterine sarcoma cell line growth inhibition [Asc]
Conditions: for viability, T/C: stronger effect = lower value
In short: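 Complex solid-tumor spheroids incorporating human endothelial and mesenchymal stem cells received single agents or combinations over half-log dilution ranges anchored to clinical Cmax.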

[1] = curve of first compound, second compound 0.03 µM
[2] = curve of first compound, second compound 0.0949 µM
[3] = curve of first compound, second compound 0.3 µM
[4] = curve of first compound, second compound 0.949 µM
[5] = curve of first compound, second compound 3 µM
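Also: spheroids exposed to compounds for seven days.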

`C=CC(=O)N1CCN(c2nc(=O)n(-c3c(C)ccnc3C(C)C)c3nc(-c4c(O)cccc4F)c(F)cc23)C(C)C1` (centres undefined) + CCN1C(C(=O)NC23CCC(C(=O)O)(CC2)CC3)C(c2cccc(Cl)c2F)C2(C(=O)Nc3cc(Cl)ccc32)C12CCCCC2 was tested, and the IC50 [1] was > 10000 nM, the IC50 [2] was > 10000 nM and the IC50 [3] was > 10000 nM. The IC50 [4] was > 10000 nM, the IC50 [5] was > 10000 nM and the viability, T/C (second compound 0.03 µM, first compound 0.0316 µM) was 96.1%. The viability, T/C (second compound 0.03 µM, first compound 0.1 µM) was 101%, the viability, T/C (second compound 0.03 µM, first compound 0.316 µM) was 108% and the viability, T/C (second compound 0.03 µM, first compound 1 µM) was 86.2%. For the same compound, the viability, T/C (second compound 0.03 µM, first compound 3.16 µM) was 114%, the viability, T/C (second compound 0.03 µM, first compound 10 µM) was 76.1% and the viability, T/C (second compound 0.0949 µM, first compound 0.0316 µM) was 102%. It also gave a viability, T/C (second compound 0.0949 µM, first compound 0.1 µM) of 106%, a viability, T/C (second compound 0.0949 µM, first compound 0.316 µM) of 103% and a viability, T/C (second compound 0.0949 µM, first compound 1 µM) of 106%. The viability, T/C (second compound 0.0949 µM, first compound 3.16 µM) was 96.5%, the viability, T/C (second compound 0.0949 µM, first compound 10 µM) was 70.5% and the viability, T/C (second compound 0.3 µM, first compound 0.0316 µM) was 88.8%. It also gave a viability, T/C (second compound 0.3 µM, first compound 0.1 µM) of 102%, a viability, T/C (second compound 0.3 µM, first compound 0.316 µM) of 102% and a viability, T/C (second compound 0.3 µM, first compound 1 µM) of 106%. The viability, T/C (second compound 0.3 µM, first compound 3.16 µM) was 107%, the viability, T/C (second compound 0.3 µM, first compound 10 µM) was 85.7% and the viability, T/C (second compound 0.949 µM, first compound 0.0316 µM) was 102%. It also gave a viability, T/C (second compound 0.949 µM, first compound 0.1 µM) of 91.2%, a viability, T/C (second compound 0.949 µM, first compound 0.316 µM) of 128% and a viability, T/C (second compound 0.949 µM, first compound 1 µM) of 100%. The viability, T/C (second compound 0.949 µM, first compound 3.16 µM) was 94.9%, the viability, T/C (second compound 0.949 µM, first compound 10 µM) was 78.3% and the viability, T/C (second compound 3 µM, first compound 0.0316 µM) was 100%. For the same compound, the viability, T/C (second compound 3 µM, first compound 0.1 µM) was 87.6%, the viability, T/C (second compound 3 µM, first compound 0.316 µM) was 97.9% and the viability, T/C (second compound 3 µM, first compound 1 µM) was 96.3%. The viability, T/C (second compound 3 µM, first compound 3.16 µM) was 90.4% and the viability, T/C (second compound 3 µM, first compound 10 µM) was 77.9%.
With `Cc1c(S(C)(=O)=O)c(-c2cc(F)cc(N3CCN(c4ccc(NS(=O)(=O)c5ccc(NC(CCN6CCC(C(=O)OCCCP(=O)(O)O)CC6)CSc6ccccc6)c(S(=O)(=O)C(F)(F)F)c5)cc4)CC3)c2)c(-c2ccc(Cl)cc2)n1C(C)C` (centres undefined) the viability, T/C (compound 0.316 µM) was 60.7% [middle of 14 runs] and the viability, T/C (compound 3.16 µM) was 49.6% [middle of 14 runs].
In the case of `NC(=O)C(=Cn1cnc(-c2cc(C(F)(F)F)cc(C(F)(F)F)c2)n1)c1cncnc1` + Cc1c(S(C)(=O)=O)c(-c2cc(F)cc(N3CCN(c4ccc(NS(=O)(=O)c5ccc(NC(CCN6CCC(C(=O)OCCCP(=O)(O)O)CC6)CSc6ccccc6)c(S(=O)(=O)C(F)(F)F)c5)cc4)CC3)c2)c(-c2ccc(Cl)cc2)n1C(C)C, the IC50 (curve of first compound, second compound 0.1 µM) is reported as 7.94 nM, the IC50 (curve of first compound, second compound 0.316 µM) is reported as 5.62 nM and the IC50 (curve of first compound, second compound 1 µM) is reported as < 0.949 nM. For the same compound, the IC50 (curve of first compound, second compound 3.16 µM) was 0.989 nM, the IC50 (curve of first compound, second compound 10 µM) was 9.35 nM and the viability, T/C (second compound 0.1 µM, first compound 0.000949 µM) was 79.2%. For the same compound, the viability, T/C (second compound 0.1 µM, first compound 0.003 µM) was 63%, the viability, T/C (second compound 0.1 µM, first compound 0.00949 µM) was 50.8% and the viability, T/C (second compound 0.1 µM, first compound 0.03 µM) was 17.5%. The viability, T/C (second compound 0.1 µM, first compound 0.0949 µM) was 5.75%, the viability, T/C (second compound 0.1 µM, first compound 0.3 µM) was 1.24% and the viability, T/C (second compound 0.316 µM, first compound 0.000949 µM) was 67%. It also gave a viability, T/C (second compound 0.316 µM, first compound 0.003 µM) of 59.9%, a viability, T/C (second compound 0.316 µM, first compound 0.00949 µM) of 41.4% and a viability, T/C (second compound 0.316 µM, first compound 0.03 µM) of 13.1%. It also gave a viability, T/C (second compound 0.316 µM, first compound 0.0949 µM) of 2.18%, a viability, T/C (second compound 0.316 µM, first compound 0.3 µM) of 0.54% and a viability, T/C (second compound 1 µM, first compound 0.000949 µM) of 48.8%. For the same compound, the viability, T/C (second compound 1 µM, first compound 0.003 µM) was 48.6%, the viability, T/C (second compound 1 µM, first compound 0.00949 µM) was 32.4% and the viability, T/C (second compound 1 µM, first compound 0.03 µM) was 9.81%. It also gave a viability, T/C (second compound 1 µM, first compound 0.0949 µM) of 1.61%, a viability, T/C (second compound 1 µM, first compound 0.3 µM) of 0.15% and a viability, T/C (second compound 3.16 µM, first compound 0.000949 µM) of 50.8%. For the same compound, the viability, T/C (second compound 3.16 µM, first compound 0.003 µM) was 35.8%, the viability, T/C (second compound 3.16 µM, first compound 0.00949 µM) was 24.6% and the viability, T/C (second compound 3.16 µM, first compound 0.03 µM) was 11.9%. The viability, T/C (second compound 3.16 µM, first compound 0.0949 µM) was 2.12%, the viability, T/C (second compound 3.16 µM, first compound 0.3 µM) was 0.26% and the viability, T/C (second compound 10 µM, first compound 0.000949 µM) was 75.6%. For the same compound, the viability, T/C (second compound 10 µM, first compound 0.003 µM) was 71.1%, the viability, T/C (second compound 10 µM, first compound 0.00949 µM) was 49.9% and the viability, T/C (second compound 10 µM, first compound 0.03 µM) was 13.7%. It also gave a viability, T/C (second compound 10 µM, first compound 0.0949 µM) of 1.63% and a viability, T/C (second compound 10 µM, first compound 0.3 µM) of 0.26%.
With `O=C(c1cc(Cc2n[nH]c(=O)c3ccccc23)ccc1F)N1CCN(C(=O)C2CC2)CC1` the viability, T/C (compound 0.0316 µM) was 83.4% and 99.6% and 106%, the viability, T/C (compound 0.1 µM) was 84.4% and 88.2% and 103% and the viability, T/C (compound 0.316 µM) was 90.3% and 89.3% and 93%. The viability, T/C (compound 1 µM) was 72.8% and 82.6% and 105%, the viability, T/C (compound 3.16 µM) was 67.7% and 68.7% and 83.8% and the viability, T/C (compound 10 µM) was 25.3% and 43% and 44.8%. For the same compound, the IC50 (curve of compound) was 4950 nM and 7380 nM and 8570 nM.
For `Cc1nc(N2CCC3(CC2)COC(C)C3N)c(CO)nc1Sc1ccnc(N)c1Cl` (centres undefined) + CCN1C(C(=O)NC23CCC(C(=O)O)(CC2)CC3)C(c2cccc(Cl)c2F)C2(C(=O)Nc3cc(Cl)ccc32)C12CCCCC2, the IC50 [1] was 211 nM, the IC50 [2] was 159 nM and the IC50 [3] was 176 nM. For the same compound, the IC50 [4] was 144 nM, the IC50 [5] was 104 nM and the viability, T/C (second compound 0.03 µM, first compound 0.00949 µM) was 89.3%. The viability, T/C (second compound 0.03 µM, first compound 0.03 µM) was 86.2%, the viability, T/C (second compound 0.03 µM, first compound 0.0949 µM) was 68.7% and the viability, T/C (second compound 0.03 µM, first compound 0.3 µM) was 41.5%. The viability, T/C (second compound 0.03 µM, first compound 0.949 µM) was 33.3%, the viability, T/C (second compound 0.03 µM, first compound 3 µM) was 29.6% and the viability, T/C (second compound 0.0949 µM, first compound 0.00949 µM) was 92.5%. For the same compound, the viability, T/C (second compound 0.0949 µM, first compound 0.03 µM) was 71.7%, the viability, T/C (second compound 0.0949 µM, first compound 0.0949 µM) was 65.2% and the viability, T/C (second compound 0.0949 µM, first compound 0.3 µM) was 35.3%. It also gave a viability, T/C (second compound 0.0949 µM, first compound 0.949 µM) of 30.2%, a viability, T/C (second compound 0.0949 µM, first compound 3 µM) of 29.2% and a viability, T/C (second compound 0.3 µM, first compound 0.00949 µM) of 87.7%. It also gave a viability, T/C (second compound 0.3 µM, first compound 0.03 µM) of 79.8%, a viability, T/C (second compound 0.3 µM, first compound 0.0949 µM) of 59% and a viability, T/C (second compound 0.3 µM, first compound 0.3 µM) of 42.6%. For the same compound, the viability, T/C (second compound 0.3 µM, first compound 0.949 µM) was 29.2%, the viability, T/C (second compound 0.3 µM, first compound 3 µM) was 26.8% and the viability, T/C (second compound 0.949 µM, first compound 0.00949 µM) was 86.7%. It also gave a viability, T/C (second compound 0.949 µM, first compound 0.03 µM) of 68.5%, a viability, T/C (second compound 0.949 µM, first compound 0.0949 µM) of 55.9% and a viability, T/C (second compound 0.949 µM, first compound 0.3 µM) of 43.1%. For the same compound, the viability, T/C (second compound 0.949 µM, first compound 0.949 µM) was 27.6%, the viability, T/C (second compound 0.949 µM, first compound 3 µM) was 22.9% and the viability, T/C (second compound 3 µM, first compound 0.00949 µM) was 75.2%. For the same compound, the viability, T/C (second compound 3 µM, first compound 0.03 µM) was 69.9%, the viability, T/C (second compound 3 µM, first compound 0.0949 µM) was 50.1% and the viability, T/C (second compound 3 µM, first compound 0.3 µM) was 34%. The viability, T/C (second compound 3 µM, first compound 0.949 µM) was 28.8% and the viability, T/C (second compound 3 µM, first compound 3 µM) was 21.6%.
